According to ChEMBL document CHEMBL3507680, “University of Dundee, Gates Library screen for HepG2 cell viability”:

experiment: Human HepG2 cell viability assay in 384 well format; type: toxicity, cell-based; parameters: dose 125 nL, time 70.5 hour; concentration not given beside the values; details: HepG2 cells, read-out: Inhibition

Row | Compound | cytotoxicity at 70.5 h [%]
1 | Cc1cccc(C(=O)Oc2cc(=O)n3cccc(C)c3n2)c1 | -5.1
2 | COC(=O)N1CCN(Cc2ccccc2Cl)CC1 | -1.89
3 | CC(C)n1[nH]c(=O)c2c1NC(=O)CSC2c1ccc(OCC(N)=O)cc1 (stereo not drawn) | -11.1
4 | CC(C)n1cnnc1C1CCCN(S(=O)(=O)CC2CCCC2)C1 (stereo not drawn) | -106
5 | CCOc1ccc(C(F)(F)F)cc1NC(=O)N1CCNC(=O)C1 | -1.6
6 | Cc1cccc(C2(CNC(=O)CO)CCCC2)c1 | 17.1
7 | O=C(Cc1ccsc1)N1C[C@H]2CCC[C@@]2(COCc2ccccn2)C1 | 10.5
8 | COc1ccc(CSCC(O)CO)c(Cl)c1 (stereo not drawn) | 18.2
9 | CN1CCCN(c2ccc(F)cc2CNC(=O)c2ccsc2)CC1 | -4.69
10 | O=C1CC(c2ccccc2)C2(CCN(CC3CC3)CC2)N1 (stereo not drawn) | -5.14
11 | CC[C@H]1CN(C(=O)c2cnc(CN3CCCC3)s2)CC[C@@]1(C)O | 22.4
12 | CNC(=O)[C@@H](C1CCCCC1)N1CCC[C@H]1C(=O)NC1CC1 | -20.1
13 | CCN1CCCC1CN(Cc1cc[nH]n1)CC1CCN(CCOC)CC1 (stereo not drawn) | 6.24
14 | COCCC(=O)N1CCC2(CCN(Cc3cccc(F)c3)CC2)CC1 | -5.26
15 | COc1ccc(C(C)NC(=O)Cn2ccc(=O)n(C)c2=O)cc1F (stereo not drawn) | -2.29
16 | Cc1cnc(C(C)(C)NC(=O)NCc2ccon2)s1 | -9.99
17 | Cc1nccc(C2CCCN(C(=O)c3cncnc3)C2)n1 (stereo not drawn) | -5.03
18 | Cc1nsc(C(=O)NCCCc2ccccc2)n1 | -5.43
19 | CC1CCN(C(=O)c2cccc3ncccc23)CC1 | 4.77
20 | Cc1cnc(C(=O)N2CCC3(CC2)CC(c2ccncc2)C(=O)N3)cn1 (stereo not drawn) | -5.53
21 | O=C(CCO)N1CCOC2(CCCN(C(=O)c3ccco3)C2)C1 (stereo not drawn) | -7.04
22 | Cc1cc(-n2nnc(C(=O)O)c2-c2ccncc2)ccc1F | -20
23 | Cc1ccc(-c2noc(C3CCN3C(=O)c3c(C)noc3C)n2)s1 (stereo not drawn) | -3.14

Row | Compound | cytotoxicity at 70.5 h [%]
24 | O=C(NCc1cccnc1)C1CC(=O)N(CC2CC2)C1 (stereo not drawn) | -6.68
25 | O=C(OC1CCC1)c1ncccc1OCC(F)(F)F | 15.8
26 | Cc1nc(CC(=O)N2CCN(c3ccc(N(C)C)cc3)CC2)cs1 | 4.33
27 | CC1CCC(N2CCC(NS(=O)(=O)CCCF)CC2)CC1 (stereo not drawn) | 7.59
28 | Nc1nc2c(s1)C(c1c(F)cccc1Cl)CC(=O)N2 (stereo not drawn) | 1.77
29 | O=C(COCC1CC1)Nc1cc(S(=O)(=O)NC2CC2)ccc1F | -2.2
30 | O=C(NCCNc1ncccn1)C1CC(=O)N(Cc2ccccc2)C1 (stereo not drawn) | -8.64
31 | COc1c(CNC2(c3noc(C)n3)CCC2)c(C(C)C)nn1C | -0.972
32 | COCCn1cc(CCC(=O)Nc2c(C)nn(C)c2C)c2ccccc21 | 49.6
33 | Cc1cc(C)cc(OCC(=O)N2CCC2)c1 | -22.1
34 | CCCc1nccn1-c1ccc(C(O)CN2CCOCC2)cc1 (stereo not drawn) | 27.6
35 | CCN1CCCN(S(=O)(=O)c2cnc3onc(C)c3c2)CC1 | -7.12
36 | O=C(CN1C(=O)CCC1=O)N1Cc2cncnc2C1 | -2.85
37 | CC(C)(C)C(=O)N1C[C@H](c2ccsc2)[C@H]2CN(C3CCCCC3)CC[C@H]21 | -3.27
38 | CCn1ncnc1C1CC(=O)NCc2nc(N)sc21 (stereo not drawn) | 27.6
39 | CCC(CC)NCC(C)Oc1cccnc1 (stereo not drawn) | -2.86
40 | Cc1cc(C)cc(C2(C(=O)NC(C)Cn3ccnc3)CC2)c1 (stereo not drawn) | 9.35
41 | O=C1CCCN1Cc1nnc2n1CCN(Cc1ccccn1)CC2 | -7.47
42 | Cc1cccc(CN2C(=O)CCC23CCN(C(=O)c2ccco2)CC3)c1 | -10.9
43 | COCCN1CCCC12CCN(Cc1cncn1C)CC2 | -1.01
44 | CCCc1cc(=O)[nH]c(-c2cccc(CN3CCCCCC3)c2)n1 | 25.8
45 | C=Cn1cc(CN2CCC(c3ncc(Cl)cc3S(C)(=O)=O)CC2)c(C)n1 | -3.31
46 | CC(CN1CCCC1=O)NC(=O)c1cc(Cl)c2c(c1)OCO2 (stereo not drawn) | 7.24

Row | Compound | cytotoxicity at 70.5 h [%]
47 | CC(C)N(C)CC(=O)N(C)C(c1cccc(F)c1)c1ccccn1 (stereo not drawn) | 40.9
48 | COCCN1CCN(CC(O)c2cc(OC)ccc2OC)CC1 (stereo not drawn) | -6.61
49 | O=C(c1cc[nH]n1)N1CCC(c2cc(Nc3ccccn3)n[nH]2)CC1 | -8.04
50 | Cc1ccccc1NC(=O)c1cncc(C2CCNCC2)n1 | -4.64
51 | CC(C)(CN)NS(=O)(=O)c1cccc(F)c1F | 9.16
52 | Cc1nc(CCCNC(=O)c2c(F)cccc2Br)n[nH]1 | 3.62
53 | COc1ccc(OCC(C)NS(C)(=O)=O)cc1 (stereo not drawn) | -3.53
54 | Cc1csc(C(C)(C)NCc2ncc(-c3ccc(F)cc3)o2)n1 | -4.53
55 | CC1c2ncc(COCC3CCOCC3)n2CCN1S(C)(=O)=O (stereo not drawn) | -1.95
56 | Cc1ccc(-c2ncc(C(=O)N3CCN4CCCCC4C3)c(O)n2)cc1 (stereo not drawn) | -4.08
57 | c1ccc(CCN2CCC(OCC3CCCCO3)CC2)nc1 (stereo not drawn) | 5.3
58 | CC(C)CCN1C(=O)C2(NC(=O)c3ccccc3O2)c2ccccc21 (stereo not drawn) | -15.1
59 | CNC(=O)N1CCC2(CC1)CC[C@@]1(C(=O)NC)CN(S(C)(=O)=O)C[C@@H]21 | -0.00397
60 | COCCN(Cc1ccccn1)C(=O)C1CCCCCN1C (stereo not drawn) | -9.93
61 | Cc1cc(NC(=O)NCCOc2ccc(Cl)cn2)no1 | -3.43
62 | Cc1cccc(CSc2ncc(Cl)c(C(=O)O)n2)c1 | -11
63 | CCn1ncc(Br)c1CN(C)S(=O)(=O)c1ccc(C)cc1 | 8.37
64 | Cn1cc(N2C(=O)CC[C@@H]3[C@H]2CCN3Cc2cccc(C#N)c2)cn1 | -13.2
65 | CN(C)CC1CN(CCOc2cccc(C#N)c2)CCO1 (stereo not drawn) | 0.102
66 | COCCOCC(=O)NC(C#N)c1c(F)cccc1Cl (stereo not drawn) | 20.7
67 | CCn1cnnc1CCNC(=O)CCNC(=O)c1ccccc1F | -6.14
68 | Cc1cc(C)n(Cc2cc(C(=O)N3CCCC3c3nccs3)n[nH]2)n1 (stereo not drawn) | -13.2
69 | CC(=O)c1c(F)cccc1NC1CCN(C(=O)C2CCCCC2)CC1 | -2.39

Row | Compound | cytotoxicity at 70.5 h [%]
70 | Cc1nc2c(c(N3CCC(CCn4cccn4)CC3)n1)CCNCC2 | -2.46
71 | NCCNS(=O)(=O)Cc1ccc(Br)cc1 | -0.385
72 | Cc1ccc(N2CCN(Cc3ccccc3)C3(CCNCC3)C2=O)cn1 | -4.83
73 | O=C(CN1CCN(c2ncnc3c2CCNCC3)CC1)N1CCCCC1 | -5.29
74 | c1ccc(CCCn2cc(-c3nc(CN4CCOCC4)no3)nn2)cc1 | -15
75 | O=C1CO[C@@H]2CN(Cc3nccs3)C[C@H]2N1Cc1ccncc1 | -11.4
76 | Cn1nc(CN2CCCCC2)c2c1CN(C(=O)c1ccoc1)C2 | 16.5
77 | CCOc1ccc(Cl)cc1CCNC(=O)Cn1nc(C)ccc1=O | 7.64
78 | CNC(=O)c1cccc(NC(=O)CN2CCN(S(C)(=O)=O)CC2)c1 | -11.3
79 | Cc1ccc(S(=O)(=O)NC2CNC(=O)C2)cc1C (stereo not drawn) | 0.672
80 | Cc1ccc(-c2cnc3n2CCN(C)C32CCN(CC3CC3)CC2)cc1 | -1.92
81 | CCC(CNC(=O)c1ccc(C(N)=O)cc1)Oc1cccc(F)c1 (stereo not drawn) | -1.85
82 | CN(CC1(O)CCCN(c2ccccn2)C1)C(=O)CC1CCOCC1 (stereo not drawn) | -9.69
83 | O=C(NC1CC1)[C@H]1C[C@H]2OCC[C@H]2N(CC2CC2)C1 | 13.9
84 | Cc1nccc([C@@H]2C[C@@H]3CCN(S(=O)(=O)N(C)C)C[C@H]3O2)n1 | 1.05
85 | Cc1cccc(C(=O)N2CCCC2c2c(C)n[nH]c2C)c1 (stereo not drawn) | -2.31
86 | O=C(Nc1cnccn1)[C@H]1CC[C@@H]2[C@@H](CCN2Cc2ccoc2)O1 | 25.7
87 | COc1ccccc1OCc1cc(C(=O)N2C[C@H](O)[C@@H](N(C)C)C2)n[nH]1 | -4.57
88 | COC1CCN(c2ccc(F)cc2CN(C)S(C)(=O)=O)CC1 | -8.29
89 | CN(Cc1ccsc1)C(=O)Nc1ccc(N(C)C)nc1 | -2.83
90 | CCc1noc(C(C)N(C)CC(=O)Nc2c(C)cccc2C)n1 (stereo not drawn) | -4.56
91 | O=C(CN1CCOC(Cn2cccn2)C1)NCCc1cccs1 (stereo not drawn) | -4.13
92 | CC(C)(C)OC(=O)NC(C)(C(N)=O)c1cccc(Cl)c1 (stereo not drawn) | 25.4

Row | Compound | cytotoxicity at 70.5 h [%]
93 | Cc1noc(C)c1CN1CCCC2(CCN(C(=O)NC3CC3)C2)C1 (stereo not drawn) | 1.02
94 | CNC(=O)c1nc(CC(=O)Nc2cccc(C(F)(F)F)c2)no1 | 22.3
95 | Cc1ccc(CN(C)C(=O)CCn2c(=O)n(C)c3ccccc32)o1 | -6.04
96 | COC(=O)CNC(=O)c1nc(-c2ccccc2OC)c2cnccn12 | -11.4
97 | CCCNC(=O)C(C)N1CCC(C(=O)Nc2cnn(CC)c2)CC1 (stereo not drawn) | -4.58
98 | CN(Cc1cccc(-n2cccn2)c1)C(=O)c1ccnc(N)c1 | 3.21
99 | c1cc2c(cc1C[C@@H]1CC[C@H](CN3CCCOCC3)O1)OCO2 | -5.03
100 | Cc1noc(CCCC(=O)NC(C)c2nnc3n2CCC3)n1 (stereo not drawn) | -4.98
101 | CCOCc1cccc(S(=O)(=O)Nc2ncc(C)s2)c1 | 3.25
102 | c1cnn(CC2CCCN2c2ncnc3sccc23)c1 (stereo not drawn) | 31.2
103 | CC1CCN(CCCNC(=O)C2CCCCC2)CC1 | -5.79
104 | Cc1ccc(CN2CCN(c3cncc(N(C)C)n3)CC2=O)cc1C | -7.53
105 | CC(C)CCN1C[C@H]2CCN(C(=O)NC3CCCC3)CC[C@H]2S1(=O)=O | -23.9
106 | c1cncc(COc2ccccc2CNC2CCc3ncnn3C2)c1 (stereo not drawn) | -5.98
107 | O=C1CC(c2ccncc2)C2(CCN(C(=O)c3ccc[nH]3)CC2)N1 (stereo not drawn) | 23.7
108 | O=C(NCc1cccs1)[C@H]1CO[C@H]2CCN(C3CCCC3)C[C@H]2C1 | 4.95
109 | CCc1[nH]c2c(CNc3cncc(C(=O)N(C)C)n3)cc(C)cc2c1C | 27.8
110 | Cn1cc(CN2CCC3(CCCN(C(=O)c4cnccn4)C3)C2)cn1 (stereo not drawn) | -5.89
111 | CCNC(=O)[C@@H]1C[C@@H](N)CN1Cc1ccc2cccc(Cl)c2n1 | 20.1
112 | CSc1ccc(-c2nc(CN3CCCC(CNC(C)=O)C3)c(C)o2)cc1 (stereo not drawn) | -3.75
113 | CC(C)(O)CN1CCN(C(=O)c2cc3ccccc3c(=O)[nH]2)CC1 | -3.18
